Assay results taken from US7109354B2, “Thiophene amidines, compositions thereof, and methods of treating complement-mediated diseases and conditions” (3-Dimensional Pharmaceuticals, Inc., priority 2002, dated 2006).
Where “and” joins values, the source holds several entries; their conditions need not be identical. Identical values can stand only once. Counter-ions that a name gives are not always drawn.

These compounds were tested against T1, Activated human C1s (Homo sapiens, UniProt P09871) (assay: In vitro inhibition of C1s (Ki determination, C1s-catalyzed hydrolysis of Z-Gly-Arg-S-Bzl, DTNB readout)). Details: substrate Z-Gly-Arg-S-Bzl 45 μM, DTNB 200 μM, C1s 2.3 nM, pH 7.5, 37° C., absorbance at 405 nm.
T1 construct: purchased Calbiochem (La Jolla, Calif.)
T1 sequence (P09871 438-688 limits assumed): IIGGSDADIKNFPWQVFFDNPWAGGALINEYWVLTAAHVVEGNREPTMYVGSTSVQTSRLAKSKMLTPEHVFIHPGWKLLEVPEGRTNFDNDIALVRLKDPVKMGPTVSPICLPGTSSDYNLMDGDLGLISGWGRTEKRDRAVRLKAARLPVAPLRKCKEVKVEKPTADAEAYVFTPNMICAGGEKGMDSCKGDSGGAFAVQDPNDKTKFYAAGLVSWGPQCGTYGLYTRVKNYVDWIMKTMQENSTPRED
T1 sequence (P09871 16-437 partner limits assumed): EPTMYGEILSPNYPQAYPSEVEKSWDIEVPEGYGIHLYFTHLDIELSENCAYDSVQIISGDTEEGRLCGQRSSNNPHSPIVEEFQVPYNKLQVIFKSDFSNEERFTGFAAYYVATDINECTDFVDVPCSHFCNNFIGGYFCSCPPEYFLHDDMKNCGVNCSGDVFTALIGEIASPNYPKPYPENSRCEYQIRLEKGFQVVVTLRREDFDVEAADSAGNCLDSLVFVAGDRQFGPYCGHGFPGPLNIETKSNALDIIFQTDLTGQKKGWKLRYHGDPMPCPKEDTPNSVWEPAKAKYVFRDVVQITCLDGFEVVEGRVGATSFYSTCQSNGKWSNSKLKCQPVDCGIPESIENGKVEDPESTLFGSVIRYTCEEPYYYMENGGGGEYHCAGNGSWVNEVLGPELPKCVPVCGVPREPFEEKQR
Assay type: biochemical

Row | SMILES | Ki
1 | CSc1sc(C(=N)N)cc1S(=O)(=O)c1cccc(-c2cccc(C=O)c2)c1 [Example 61, 4-(3′-Formyl-biphenyl-3-sulfonyl)-5-methylsulfanyl-thiophene-2-carboxamidine] | 6 to 23 nM and 6 nM
2 | CSc1sc(C(=N)N)cc1S(=O)(=O)c1cccc(-c2c(C)cccc2NC(=O)CCCS(C)(=O)=O)c1 [Example 209, N-[3′-(5-Carbamimidoyl-2-methylsulfanyl-thiophene-3-sulfonyl)-6-methyl-biphenyl-2-yl]-4-methanesulfonyl-butyramide trifluoroacetate] | 6 to 23 nM
3 | CSc1sc(C(=N)N)cc1S(=O)(=O)c1cccc(-c2ccc3c(c2)OCO3)c1 [Example 58, 4-(3-Benzo[1,3]dioxol-5-yl-benzenesulfonyl)-5-methylsulfanyl-thiophene-2-carboxamidine] | 6 to 23 nM
4 | CSc1sc(C(=N)N)cc1S(=O)(=O)c1cccc(-c2ccccc2O)c1 [Example 34, 4-(2′-Hydroxy-biphenyl-3-sulfonyl)-5-methylsulfanyl-thiophene-2-carboxamidine trifluoroacetate] | 6 to 23 nM
5 | CSc1sc(C(=N)N)cc1S(=O)(=O)c1cccc(-c2cc(Cl)ccc2Cl)c1 [Example 47, 4-(2′,5′-Dichloro-biphenyl-3-sulfonyl)-5-methylsulfanyl-thiophene-2-carboxamidine] | 6 to 23 nM
6 | CSc1sc(C(=N)N)cc1S(=O)(=O)c1cccc(-c2ccc(C(C)=O)cc2)c1 [Example 85, 4-(4′-acetyl-biphenyl-3-sulfonyl)-5-methylsulfanyl-thiophene-2-carboxamidine] | 6 to 23 nM
7 | COc1cccc(-c2cccc(S(=O)(=O)c3cc(C(=N)N)sc3SC)c2)c1 [Example 44, 4-(3′-Methoxy-biphenyl-3-sulfonyl)-5-methylsulfanyl-thiophene-2-carboxamidine] | 6 to 23 nM
8 | CSc1sc(C(=N)N)cc1S(=O)(=O)c1cccc(-c2cccc(-c3ccccc3)c2O)c1 [Example 2] | 6 to 23 nM
9 | CSc1sc(C(=N)N)cc1S(=O)(=O)c1cccc(-c2cccc(C)c2)c1 [Example 60, 4-(3′-methyl-biphenyl-3-sulfonyl)-5-methylsulfanyl-thiophene-2-carboxamidine] | 6 to 23 nM
10 | CSc1sc(C(=N)N)cc1S(=O)(=O)c1cc(-c2ccccc2C)c2nc[nH]c2c1 [Example 110, 5-methylsulfanyl-4-(7-o-tolyl-3H-benzoimidazole-5-sulfonyl)-thiophene-2-carboxamidine trifluoroacetate] | 6 to 23 nM
11 | CSc1sc(C(=N)N)cc1S(=O)(=O)c1cc(O)cc(-c2ccccc2Cl)c1 [Example 18, 4-(2′-Chloro-5-hydroxy-biphenyl-3-sulfonyl)-5-methylsulfanyl-thiophene-2-carboxamidine trifluoroacetate] | 6 to 23 nM
12 | COc1cc(C)c(-c2cccc(S(=O)(=O)c3cc(C(=N)N)sc3SC)c2)c(NC(=O)CS(C)(=O)=O)c1 [Example 254, N-[3′-(5-Carbamimidoyl-2-methylsulfanyl-thiophene-3-sulfonyl)-4-methoxy-6-methyl-biphenyl-2-yl]-2-methanesulfonyl-acetamide trifluoroacetate] | 6 to 23 nM
13 | CSc1sc(C(=N)N)cc1S(=O)(=O)c1cccc(-c2cccc(Cl)c2Cl)c1 [Example 100, 4-(2′,3′-dichloro-biphenyl-3-sulfonyl)-5-methylsulfanyl-thiophene-2-carboxamidine] | 6 to 23 nM
14 | CSc1sc(C(=N)N)cc1S(=O)(=O)c1cccc(-c2ccc(NC(=N)NCCCS(C)(=O)=O)cc2C)c1 [Example 171, 4-{4′-[N′-(3-Methanesulfonyl-propyl)-guanidino]-2′-methyl-biphenyl-3-sulfonyl}-5-methylsulfanyl-thiophene-2-carboxamidine trifluoroacetate] | 6 to 23 nM
15 | CSc1sc(C(=N)N)cc1S(=O)(=O)c1cccc(-c2cccc(C(C)C)c2)c1 [Example 98, 4-(3′-isopropyl-biphenyl-3-sulfonyl)-5-methylsulfanyl-thiophene-2-carboxamidine] | 6 to 23 nM
16 | CSc1sc(C(=N)N)cc1S(=O)(=O)c1cccc(-c2cc(-c3ccccc3)ccc2O)c1 [Example 1, 4-(4′-Hydroxy-[1,1′;3′,1′]terphenyl-3′-sulfonyl)-5-methylsulfanyl-thiophene-2-carboxamidine trifluoroacetate] | 6 to 23 nM
17 | CSc1sc(C(=N)N)cc1S(=O)(=O)c1cccc(-c2c(C)noc2C)c1 [Example 89, 4-[3-(3,5-dimethyl-isoxazol-4-yl)-benzenesulfonyl]-5-methylsulfanyl-thiophene-2-carboxamidine] | 6 to 23 nM
18 | CSc1sc(C(=N)N)cc1S(=O)(=O)c1cccc(-c2ccccc2C)c1 [Example 90, 4-(2′-methyl-biphenyl-3-sulfonyl)-5-methylsulfanyl-thiophene-2-carboxamidine] | 6 to 23 nM
19 | CSc1sc(C(=N)N)cc1S(=O)(=O)c1cccc(-c2ccccc2Cl)c1 [Example 69, 4-(2′-Chloro-biphenyl-3-sulfonyl)-5-methylsulfanyl-thiophene-2-carboxamidine] | 6 to 23 nM
20 | CSc1sc(C(=N)N)cc1S(=O)(=O)c1cccc(-c2ccc(NC3=NCCN3)cc2C)c1 [Example 233, 4-[4′-(4,5-Dihydro-1H-imidazol-2-ylamino)-2′-methyl-biphenyl-3-sulfonyl]-5-methylsulfanyl-thiophene-2-carboxamidine bis-trifluoroacetate] | 6 to 23 nM
21 | CCCCCCNC(=N)Nc1ccc(-c2cccc(S(=O)(=O)c3cc(C(=N)N)sc3SC)c2)c(C)c1 [Example 136, 4-[4′-(N′-Hexyl-guanidino)-2′-methyl-biphenyl-3-sulfonyl]-5-methylsulfanyl-thiophene-2-carboxamidine trifluoroacetate] | 6 to 23 nM

More lines, now with the values ahead:

Row | Ki | SMILES
22 | 6 to 23 nM | CSc1sc(C(=N)N)cc1S(=O)(=O)c1cccc(-c2c(C)cc(Cl)cc2NC(=O)CCCS(C)(=O)=O)c1 [Example 135, N-[3′-(5-Carbamimidoyl-2-methylsulfanyl-thiophene-3-sulfonyl)-4-chloro-6-methyl-biphenyl-2-yl]-4-methanesulfonyl-butyramide trifluoroacetate]
23 | 6 to 23 nM | CSc1sc(C(=N)N)cc1S(=O)(=O)c1cccc(-c2ccc(NC(=O)NCCCS(C)(=O)=O)cc2C)c1 [Example 296, 4-{4′-[3-(3-Methanesulfonyl-propyl)-ureido]-2′-methyl-biphenyl-3-sulfonyl}-5-methylsulfanyl-thiophene-2-carboxamidine trifluoroacetate]
24 | 6 to 23 nM | CSc1sc(C(=N)N)cc1S(=O)(=O)c1cccc(-c2c(C)cccc2NC(=O)NCCNS(=O)(=O)c2ccccc2)c1 [Example 194, 4-{2′-[3-(2-Benzenesulfonylamino-ethyl)-ureido]-6′-methyl-biphenyl-3-sulfonyl}-5-methylsulfanyl-thiophene-2-carboxamidine trifluoroacetate]
25 | 6 to 23 nM | CSc1sc(C(=N)N)cc1S(=O)(=O)c1cccc(-c2c(C)cccc2C(=O)O)c1 [Example 4, 3′-(5-Carbamimidoyl-2-methylsulfanyl-thiophene-3-sulfonyl)-6-methyl-biphenyl-2-carboxylic acid trifluoroacetate]
26 | 6 to 23 nM | CSc1sc(C(=N)N)cc1S(=O)(=O)c1cccc(-c2c(C)cc(NC(=N)N)cc2N)c1 [Example 237, 4-(6′-Amino-4′-guanidino-2′-methyl-biphenyl-3-sulfonyl)-5-methylsulfanyl-thiophene-2-carboxamidine bis-trifluoroacetate]
27 | 6 to 23 nM | COc1cc(C)c(-c2cccc(S(=O)(=O)c3cc(C(=N)N)sc3SC)c2)c(NC(=O)CCCCCS(C)(=O)=O)c1 [Example 255, 6-Methanesulfonyl-hexanoic acid[3′-(5-carbamimidoyl-2-methylsulfanyl-thiophene-3-sulfonyl)-4-methoxy-6-methyl-biphenyl-2-yl]-amide trifluoroacetate]
28 | 6 to 23 nM | CO/N=C(\N)Nc1ccc(-c2cccc(S(=O)(=O)c3cc(C(=N)N)sc3SC)c2)c(C)c1 [Example 315, 4-[2′-Methyl-4′-(N′-methoxyl-guanidino)-biphenyl-3-sulfonyl]-5-methylsulfanyl-thiophene-2-carboxamidine bis-trifluoroacetate]
29 | 6 to 23 nM | CSc1sc(C(=N)N)cc1S(=O)(=O)c1cccc(Oc2ccccc2)c1 [Example 116, 5-Metylsulfanyl-4-(3-phenoxy-benzenesulfonyl)-thiophene-2-carboxamidine hydrochloride salt]
30 | 6 to 23 nM | COc1cc(Br)cc(S(=O)(=O)c2cc(C(=N)N)sc2SC)c1 [Example 13, 4-(3-Bromo-5-methoxy-benzenesulfonyl)-5-methylsulfanyl-thiophene-2-carboxamidine hydrochloride]
31 | 6 to 23 nM | CSc1sc(C(=N)N)cc1S(=O)(=O)c1cccc(-c2ccc(C(F)(F)F)cc2)c1 [Example 54, 5-Methylsulfanyl-4-(4′-trifluoromethyl-biphenyl-3-sulfonyl)-thiophene-2-carboxamidine]
32 | 6 to 23 nM | C=Cc1ccccc1-c1cccc(S(=O)(=O)c2cc(C(=N)N)sc2SC)c1 [Example 87, 5-methylsulfanyl-4-(2′-vinyl-biphenyl-3-sulfonyl)-thiophene-2-carboxamidine]
